Experimental data: ChEMBL document CHEMBL1123770, “Systematic synthesis and biological evaluation of alpha- and beta-D-lyxofuranosyl nucleosides of the five naturally occurring nucleic acid bases” (1987)
≈ marks a conversion by molar mass, not a printed value.

How the values were obtained:
HeLa [1] = assay: Minimum cytotoxic concentration (MCC) required to cause a microscopically detectable alteration of host cell morphology, when incubated with HeLa cells; assay type: functional; conditions: Homo sapiens
Vero [2] = assay: Minimum inhibitory concentration (MIC) required to reduce virus-induced cytopathogenicity by 50% against Reo virus-1 in African green monkey kidney (Vero B)cells; assay type: functional, Chlorocebus sabaeus; conditions: Chlorocebus sabaeus; read-out: MIC
WI-38 [3] = assay: Minimum inhibitory concentration (MIC) required to reduce virus-induced cytopathogenicity by 50% against Rhinovirus-1A in human diploid (WI-38)cells; assay type: functional
WI-38 [4] = assay: Minimum inhibitory concentration (MIC) required to reduce virus-induced cytopathogenicity by 50% against Rhinovirus 9 in human diploid (WI-38)cells; assay type: functional; conditions: Homo sapiens; read-out: MIC
Vero [5] = assay: Minimum inhibitory concentration (MIC) required to reduce virus-induced cytopathogenicity by 50% against Coxsackie virus B4 in African green monkey kidney (Vero B)cells; assay type: functional, Chlorocebus sabaeus; conditions: Chlorocebus sabaeus; read-out: MIC
Oryctolagus cuniculus [6] = organism: Oryctolagus cuniculus; assay: Minimum inhibitory concentration (MIC) required to reduce virus-induced cytopathogenicity by 50% against Vaccinia virus in primary rabbit kidney cells; assay type: functional; conditions: Oryctolagus cuniculus; read-out: MIC
Vero [7] = assay: Minimum cytotoxic concentration (MCC) required to cause a microscopically detectable alteration of host cell morphology, when incubated with Vero B cells; assay type: functional; conditions: Chlorocebus sabaeus
Oryctolagus cuniculus [8] = organism: Oryctolagus cuniculus; assay: Minimum inhibitory concentration (MIC) required to reduce virus-induced cytopathogenicity by 50% against Vesicular stomatitis virus in primary rabbit kidney cells; assay type: functional
Oryctolagus cuniculus [9] = organism: Oryctolagus cuniculus; assay: Minimum inhibitory concentration (MIC) required to reduce virus-induced cytopathogenicity by 50% against G strain of Herpes simplex virus-2 in primary rabbit kidney cells; assay type: functional; conditions: Oryctolagus cuniculus; read-out: MIC
WI-38 [10] = assay: Minimum cytotoxic concentration (MCC) required to cause a microscopically detectable alteration of host cell morphology, when incubated with WI-38 cells; assay type: functional; conditions: Homo sapiens
HeLa [11] = assay: Minimum inhibitory concentration (MIC) required to reduce virus-induced cytopathogenicity by 50% against Vesicular stomatitis virus in HeLa cells; assay type: functional; conditions: Homo sapiens
[12] = Minimum cytotoxic concentration (MCC) required to cause a microscopically detectable alteration of host cell morphology, when incubated with PRK cells; assay type: functional; conditions: Oryctolagus cuniculus
Vero [13] = assay: (§1) Minimum inhibitory concentration (MIC) required to reduce virus-induced cytopathogenicity by 50% against forest virus in African green monkey kidney (Vero B)cells; assay type: functional; conditions: Chlorocebus sabaeus
HeLa [14] = assay: Minimum inhibitory concentration (MIC) required to reduce virus-induced cytopathogenicity by 50% against Coxsackie virus B4 in HeLa cells; assay type: functional; conditions: Homo sapiens
Human respirovirus 3 = assay: (§2) Minimum inhibitory concentration (MIC) required to reduce virus-induced cytopathogenicity by 50% against Parainfluenza virus-3 in African green monkey kidney (Vero B)cells; assay type: functional
Vero [15] = assay: Minimum inhibitory concentration (MIC) required to reduce virus-induced cytopathogenicity by 50% against Sindbis virus in African green monkey kidney (Vero B)cells; assay type: functional; conditions: Chlorocebus sabaeus
Oryctolagus cuniculus [16] = organism: Oryctolagus cuniculus; assay: Minimum inhibitory concentration (MIC) required to reduce virus-induced cytopathogenicity by 50% against KOS strain of Herpes simplex virus-1 in primary rabbit kidney cells; assay type: functional
Mus musculus [17] = organism: Mus musculus; assay: Number of mice normal, without lesion after HSV-2 infection observed from day 0 to day 3; assay type: functional
[18] = Inhibitory effect on KOS strain of Herper simplex virus-1 yield, in primary rabbit kidney cell culture 10 ug/mL concentration after 48 hours.; assay type: functional, Oryctolagus cuniculus
Mus musculus [19] = organism: Mus musculus; assay: Number of mice normal, without lesion after HSV-1 infection observed from day 0 to day 3; assay type: functional
[20] = Inhibitory effect on 196 strain of Herper simplex virus-2 yield, in primary rabbit kidney cell culture 10 ug/mL concentration after 48 hours.; assay type: functional, Oryctolagus cuniculus
[21] = Inhibitory effect on 196 strain of Herper simplex virus-2 yield, in primary rabbit kidney cell culture 4 ug/mL concentration after 48 hours.; assay type: functional, Oryctolagus cuniculus
[22] = Inhibitory effect on 196 strain of Herper simplex virus-2 yield, in primary rabbit kidney cell culture 40 ug/mL concentration after 48 hours.; assay type: functional, Oryctolagus cuniculus
[23] = Inhibitory effect on KOS strain of Herper simplex virus-1 yield, in primary rabbit kidney cell culture at 4 ug/mL concentration after 24 hours; assay type: functional, Oryctolagus cuniculus
Mus musculus [24] = organism: Mus musculus; assay: Number of mice normal, without lesion after HSV-1 infection observed from day 12 to day 20; assay type: functional
[25] = Inhibitory effect on 196 strain of Herper simplex virus-2 yield, in primary rabbit kidney cell culture 40 ug/mL concentration after 24 hours.; assay type: functional, Oryctolagus cuniculus
Mus musculus [26] = organism: Mus musculus; assay: Survival rate at 20th day expressed as number of mice survived infected with HSV-1; out of 10; assay type: functional
Mus musculus [27] = organism: Mus musculus; assay: Number of mice dead, after HSV-1 infection observed from day 12 to day 20; assay type: functional
[28] = Inhibitory effect on 196 strain of Herper simplex virus-2 yield, in primary rabbit kidney cell culture 4 ug/mL concentration after 24 hours.; assay type: functional, Oryctolagus cuniculus
Mus musculus [29] = organism: Mus musculus; assay: Survival rate at 20th day expressed as number of mice survived infected with HSV-2; out of 10; assay type: functional
[30] = Inhibitory effect on KOS strain of Herper simplex virus-1 yield, in primary rabbit kidney cell culture at 10 ug/mL concentration after 24 hours; assay type: functional, Oryctolagus cuniculus
Mus musculus [31] = organism: Mus musculus; assay: Number of mice dead, after HSV-2 infection observed from day 12 to day 20; assay type: functional
Mus musculus [32] = organism: Mus musculus; assay: Number of mice normal, without lesion after HSV-2 infection observed from day 12 to day 20; assay type: functional
Mus musculus [33] = organism: Mus musculus; assay: Number of mice with skin lesions plus paralysis, after HSV-1 infection observed from day 12 to day 20; assay type: functional
[34] = Inhibitory effect on KOS strain of Herper simplex virus-1 yield, in primary rabbit kidney cell culture 4 ug/mL concentration after 48 hours.; assay type: functional, Oryctolagus cuniculus
[35] = Inhibitory effect on KOS strain of Herper simplex virus-1 yield, in primary rabbit kidney cell culture at 40 ug/mL concentration after 24 hours; assay type: functional, Oryctolagus cuniculus
[36] = Inhibitory effect on KOS strain of Herper simplex virus-1 yield, in primary rabbit kidney cell culture 40 ug/mL concentration after 48 hours.; assay type: functional, Oryctolagus cuniculus
[37] = Inhibitory effect on 196 strain of Herper simplex virus-2 yield, in primary rabbit kidney cell culture 10 ug/mL concentration after 24 hours.; assay type: functional, Oryctolagus cuniculus
Monkey = assay: as §1; assay type: functional, Chlorocebus sabaeus; conditions: Cercopithecidae
Vero [38] = assay: as §2; assay type: functional, Chlorocebus sabaeus; conditions: Chlorocebus sabaeus; read-out: MIC
[39] = Inhibitory effect on 196 strain of Herper simplex virus-2 yield, in primary rabbit kidney cell culture 1 ug/mL concentration after 24 hours.; assay type: functional, Oryctolagus cuniculus
[40] = Inhibitory effect on KOS strain of Herper simplex virus-1 yield, in primary rabbit kidney cell culture 1 ug/mL concentration after 48 hours.; assay type: functional, Oryctolagus cuniculus
[41] = Inhibitory effect on 196 strain of Herper simplex virus-2 yield, in primary rabbit kidney cell culture 0.04 ug/mL concentration after 48 hours.; assay type: functional, Oryctolagus cuniculus
[42] = Inhibitory effect on 196 strain of Herper simplex virus-2 yield, in primary rabbit kidney cell culture 1 ug/mL concentration after 48 hours.; assay type: functional, Oryctolagus cuniculus
[43] = Inhibitory effect on KOS strain of Herper simplex virus-1 yield, in primary rabbit kidney cell culture at 1 ug/mL concentration after 24 hours; assay type: functional, Oryctolagus cuniculus
[44] = Inhibitory effect on 196 strain of Herper simplex virus-2 yield, in primary rabbit kidney cell culture 0.1 ug/mL concentration after 24 hours.; assay type: functional, Oryctolagus cuniculus
[45] = Inhibitory effect on KOS strain of Herper simplex virus-1 yield, in primary rabbit kidney cell culture 0.1 ug/mL concentration after 48 hours.; assay type: functional, Oryctolagus cuniculus
[46] = Inhibitory effect on KOS strain of Herper simplex virus-1 yield, in primary rabbit kidney cell culture 0.4 ug/mL concentration after 48 hours.; assay type: functional, Oryctolagus cuniculus
[47] = Inhibitory effect on KOS strain of Herper simplex virus-1 yield, in primary rabbit kidney cell culture at 0.4 ug/mL concentration after 24 hours; assay type: functional, Oryctolagus cuniculus
[48] = Inhibitory effect on 196 strain of Herper simplex virus-2 yield, in primary rabbit kidney cell culture 0.4 ug/mL concentration after 48 hours.; assay type: functional, Oryctolagus cuniculus
[49] = Inhibitory effect on 196 strain of Herper simplex virus-2 yield, in primary rabbit kidney cell culture 0.04 ug/mL concentration after 24 hours.; assay type: functional, Oryctolagus cuniculus
[50] = Inhibitory effect on 196 strain of Herper simplex virus-2 yield, in primary rabbit kidney cell culture 0.1 ug/mL concentration after 48 hours.; assay type: functional, Oryctolagus cuniculus
[51] = Inhibitory effect on KOS strain of Herper simplex virus-1 yield, in primary rabbit kidney cell culture at 0.1 ug/mL concentration after 24 hours; assay type: functional, Oryctolagus cuniculus
[52] = Inhibitory effect on 196 strain of Herper simplex virus-2 yield, in primary rabbit kidney cell culture 0.4 ug/mL concentration after 24 hours.; assay type: functional, Oryctolagus cuniculus
[53] = Inhibitory effect on KOS strain of Herper simplex virus-1 yield, in primary rabbit kidney cell culture at 0.04 ug/mL concentration after 24 hours; assay type: functional, Oryctolagus cuniculus
[54] = Inhibitory effect on KOS strain of Herper simplex virus-1 yield, in primary rabbit kidney cell culture 0.04 ug/mL concentration after 48 hours.; assay type: functional, Oryctolagus cuniculus

Structure (SMILES)	MCC (HeLa [1]) [µg/mL]	MIC (Vero [2]) [µg/mL]	MIC (WI-38 [3]) [µg/mL]	MIC (WI-38 [4]) [µg/mL]	MIC (Vero [5]) [µg/mL]	MCC (Vero [7]) [µg/mL]	MIC (Oryctolagus cuniculus [9]) [µg/mL]	MCC (WI-38 [10]) [µg/mL]	MCC [12] [µg/mL]	MIC (HeLa [14]) [µg/mL]	MIC (Vero [15]) [µg/mL]	MIC (Oryctolagus cuniculus [16]) [µg/mL]	No. of mice (Mus musculus [17])	No. of mice (Mus musculus [19])	Virus yield [21] [log pfu ml-1]	Virus yield [23] [log pfu ml-1]	No. of mice (Mus musculus [24])	Survival rate (Mus musculus [26])	Virus yield [28] [log pfu ml-1]	Survival rate (Mus musculus [29])	further results
Nc1nccc2c1ncn2[C@@H]1C[C@H](CO)[C@@H](O)[C@H]1O [3-DEAZAARISTEROMYCIN A]	> 400	1 (≈ 3.78 µM)	> 400	> 400	0.04 (≈ 0.151 µM)	> 400	150 (≈ 568 µM)	> 400	> 400	> 400	70 (≈ 265 µM)	> 400									MIC (Oryctolagus cuniculus [6]): 0.7 µg/mL (≈ 2.65 µM); MIC (Oryctolagus cuniculus [8]): 0.2 µg/mL (≈ 0.757 µM); MIC (HeLa [11]): 0.7 µg/mL (≈ 2.65 µM); MIC (Vero [13]): > 200 µg/mL; MIC (Human respirovirus 3): 0.7 µg/mL (≈ 2.65 µM)
Nc1ncnc2c1ncn2[C@@H]1O[C@H](CO)[C@@H](O)[C@H]1O [ADENOSINE]													10	10	5.7	6.7	3	4	5	3	Virus yield [18]: 6.8 log pfu ml-1; Virus yield [20]: 5.2 log pfu ml-1; Virus yield [22]: 4.3 log pfu ml-1; Virus yield [25]: <1.6 log pfu ml-1; No. of mice (Mus musculus [27]): 6; Virus yield [30]: 5.7 log pfu ml-1; No. of mice (Mus musculus [31]): 7; No. of mice (Mus musculus [32]): 3; No. of mice (Mus musculus [33]): 1; Virus yield [34]: 6.8 log pfu ml-1; Virus yield [35]: 3 log pfu ml-1; Virus yield [36]: 5.5 log pfu ml-1; Virus yield [37]: 4.7 log pfu ml-1
Cc1cn([C@@H]2O[C@H](CO)[C@H](O)[C@@H]2O)c(=O)[nH]c1=O	> 400	> 400	> 400	> 150	> 400	> 400	> 400	> 400	> 400	> 400	> 400	> 400									MIC (Monkey): > 400 µg/mL; MIC (Vero [38]): > 400 µg/mL
Nc1nc2c(ncn2COCCO)c(=O)[nH]1 [ACYCLOVIR]													10	10	3.8	2	10	10	<2	5	Virus yield [39]: 3.1 log pfu ml-1; Virus yield [40]: 5.3 log pfu ml-1; Virus yield [41]: 5.7 log pfu ml-1; Virus yield [42]: 5.3 log pfu ml-1; Virus yield [43]: 3.6 log pfu ml-1; Virus yield [44]: 4.8 log pfu ml-1; Virus yield [45]: 5.6 log pfu ml-1; Virus yield [46]: 5 log pfu ml-1; Virus yield [47]: 4.1 log pfu ml-1; Virus yield [48]: 5 log pfu ml-1; Virus yield [49]: 5.8 log pfu ml-1; Virus yield [50]: 5.6 log pfu ml-1; Virus yield [51]: 5.2 log pfu ml-1; Virus yield [52]: 4.1 log pfu ml-1; Virus yield [53]: 5.6 log pfu ml-1; No. of mice (Mus musculus [32]): 5; Virus yield [34]: 3.3 log pfu ml-1; Virus yield [54]: 5.9 log pfu ml-1
